Laboratory results from US11213020B2, “Atopic dermatitis model non-human animal and use thereof” (KYUSHU UNIVERSITY, NATIONAL UNIVERSITY CORPORATION, priority 2016, dated 2022).

Legend:
EPAS1 protein = experiment: Western blotting of EPAS1 expression in CD4+ T cells treated with EPAS1 inhibitor; assay type: cell-based; details: human CD4+ T cells (patients with atopic dermatitis and healthy controls), inhibitor at 30 μM, FIG. 44
From the text: (§1) Human peripheral blood samples were collected from atopic dermatitis patients and healthy volunteers in compliance with Institutional Review Board protocols of the facility. Human peripheral blood mononuclear cells (PBMC) were separated by Percoll (GE Healthcare) gradient centrifugation. The CD4^+ T cells were isolated from PBMCs by magnetic sorting by using Dynabeads human CD4 followed by treatment with DETACHaBEAD human CD4 (Life Technologies).
(§2) After being suspended in complete RPMI 1640 medium, CD4^+ T cells (3×10^5 cells/well) were stimulated in a 24-well plate coated with anti-human CD3ε antibody (model “Hit3a”, Tonbo Biosciences) for 6 hours. In some experiments, the CD4^+ T cells were treated with EPAS1 inhibitors, FM19G11 or HIFVII at 30 μM (both from Calbiochem).
Cells were lysed in 20 mM Tris-HCl buffer (pH 7.5) containing 1% Triton X-100, 150 mM NaCl, 1 mM EDTA, 1 mM EGTA, 2.5 mM sodium pyrophosphate, 1 mM β-glycerophosphate, 1 mM Na3VO4, and complete protease inhibitors (Roche).
After centrifugation, the supernatants were mixed with an equal volume of 2× sample buffer (125 mM Tris-HCl, 0.01% bromophenacyl bromide, 4% SDS, 20% glycerol, and […] dithiothreitol). Samples were boiled for 5 minutes and analyzed by inmmunoblotting.
The following antibodies were used. […]

IL-31 gene = IL-31 gene expression in CD4+ T cells from patients with atopic dermatitis following TCR stimulation (real-time PCR); assay type: cell-based, human; details: anti-CD3ε stimulation 6 hours, inhibitor at 30 μM, FIG. 45 (a), (c)
From the text: as §1, §2
(§3) Total RNA was extracted using ISOGEN (trade name, Nippon Gene). After treatment with RNase-free DNase I (Life Technologies), RNA samples were reverse-transcribed with oligo (dT) primers (Life Technologies) and SuperScript III reverse transcriptase (Life Technologies) for amplification by PCR.
(§4) Real-time PCR was performed using ABI PRISM 7,000 Sequence Detection System (trade name, Applied Biosystems) and SYBR Green PCR Master Mix (Applied Biosystems).
(§5) The expression levels of human and mouse target genes were normalized based on expression levels of GAPDH and HPRT. […]

IL-2 gene = IL-2 gene expression in CD4+ T cells from patients with atopic dermatitis following TCR stimulation (real-time PCR); assay type: cell-based, human; details: anti-CD3ε stimulation 6 hours, inhibitor at 30 μM, FIG. 45 (b)
From the text: as §1, §2, §3, §4, §5

Cc1ccc(C(=O)COC(=O)c2cccc(NC(=O)c3ccc([N+](=O)[O-])cc3[N+](=O)[O-])c2)cc1 [FM19G11, 3-[(2,4-dinitrobenzoyl)amino]-benzoic acid 2-(4-methylphenyl)-2-oxoethyl ester]
expression level of EPAS1 protein (EPAS1 protein): markedly decreased | expression of the IL-31 gene following TCR stimulation (IL-31 gene): markedly suppressed | expression levels of the IL-2 gene following TCR stimulation (IL-2 gene): comparable
